Numbered stars: 1 amine (or outer) side, 2 acyl side, 3 side chain; on linkers, the order of the positions; unused ones are H or OH. Square brackets hold non-standard residues; d marks the D form. Side chains are listed from the residue outwards. Peptide text beside a SMILES is read from it. * marks the point of attachment. Malonyl(2,2-Me2,histaminyl) = CC(C)(C(=O)NCCc1cnc[nH]1)C(=O)*; C20 diacid = O=C(O)CCCCCCCCCCCCCCCCCCC(=O)*; αMePhe(2-F) = C[C@](N)(Cc1ccccc1F)C(=O)O; γGlu = O=C(O)[C@H](CCC(=O)[*:2])N[*:1]; Desaminohistidyl = O=C(CCc1c[nH]cn1)*; Desaminotyrosyl = O=C(CCc1ccc(O)cc1)*; αMeL = CC(C)C[C@](C)(N)C(=O)O; AEEA = NCCOCCOCC(=O)O; Aib = CC(C)(N)C(=O)O
Tests used:
human Gcg receptor = molecular target: T1, human Gcg receptor (Homo sapiens, UniProt P47871); experiment: [125I]-Glucagon binding (SPA), human Gcg receptor; conditions: read-out: hGLcgR Ki, nM (SEM, n)
T1 construct: expressed in transfected cells; crude membranes
T1 sequence (P47871 26-477): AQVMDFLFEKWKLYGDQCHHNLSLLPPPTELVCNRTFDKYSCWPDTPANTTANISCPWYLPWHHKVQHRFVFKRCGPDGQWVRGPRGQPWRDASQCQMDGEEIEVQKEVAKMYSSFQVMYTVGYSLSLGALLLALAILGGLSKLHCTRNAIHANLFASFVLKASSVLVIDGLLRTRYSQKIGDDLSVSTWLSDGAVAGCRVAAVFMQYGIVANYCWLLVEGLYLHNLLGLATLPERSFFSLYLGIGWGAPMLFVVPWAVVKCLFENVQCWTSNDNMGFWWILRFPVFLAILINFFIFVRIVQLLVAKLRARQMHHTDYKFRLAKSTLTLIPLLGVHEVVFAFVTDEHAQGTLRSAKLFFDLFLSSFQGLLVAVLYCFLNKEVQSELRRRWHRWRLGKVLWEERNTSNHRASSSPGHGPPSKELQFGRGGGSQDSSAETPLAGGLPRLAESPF
Outline: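 Cell pellets were lysed in hypotonic Tris buffer, pH 7.5, homogenized, and spun at low then high speed to give crude membranes. Ki was derived from the fitted IC50.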

human GIP receptor = molecular target: T2, human GIP receptor (Homo sapiens, UniProt P48546); experiment: [125I]-GIP binding (SPA), human GIP receptor; conditions: read-out: hGIPR Ki, nM (SEM, n)
T2 construct: expressed in transfected cells; crude membranes
T2 sequence (P48546 22-466): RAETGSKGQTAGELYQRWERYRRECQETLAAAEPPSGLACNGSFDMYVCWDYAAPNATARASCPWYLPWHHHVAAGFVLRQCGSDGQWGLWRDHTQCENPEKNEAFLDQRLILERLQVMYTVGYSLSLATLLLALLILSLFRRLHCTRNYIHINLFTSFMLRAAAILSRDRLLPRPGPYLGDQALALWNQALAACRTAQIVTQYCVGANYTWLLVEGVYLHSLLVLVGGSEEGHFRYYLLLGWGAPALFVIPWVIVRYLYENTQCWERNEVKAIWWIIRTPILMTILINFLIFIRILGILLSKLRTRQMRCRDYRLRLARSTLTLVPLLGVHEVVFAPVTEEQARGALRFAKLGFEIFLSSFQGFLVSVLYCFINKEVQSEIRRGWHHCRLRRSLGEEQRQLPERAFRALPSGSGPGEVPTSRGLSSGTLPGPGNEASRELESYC

[1] = molecular target: human GLP-1 receptor (GLP-1R) (Homo sapiens, UniProt P43220); experiment: cAMP pharmacological functional assay in presence of casein, hGLP-1R; assay type: cell-based; conditions: HEK293 cells expressing hGLP-1R, 0.1% Casein, geometric mean; read-out: hGLP1R cAMP Rel EC50 nM (SEM, n)
human GLP-1 receptor (GLP-1R), sequence (P43220 24-463): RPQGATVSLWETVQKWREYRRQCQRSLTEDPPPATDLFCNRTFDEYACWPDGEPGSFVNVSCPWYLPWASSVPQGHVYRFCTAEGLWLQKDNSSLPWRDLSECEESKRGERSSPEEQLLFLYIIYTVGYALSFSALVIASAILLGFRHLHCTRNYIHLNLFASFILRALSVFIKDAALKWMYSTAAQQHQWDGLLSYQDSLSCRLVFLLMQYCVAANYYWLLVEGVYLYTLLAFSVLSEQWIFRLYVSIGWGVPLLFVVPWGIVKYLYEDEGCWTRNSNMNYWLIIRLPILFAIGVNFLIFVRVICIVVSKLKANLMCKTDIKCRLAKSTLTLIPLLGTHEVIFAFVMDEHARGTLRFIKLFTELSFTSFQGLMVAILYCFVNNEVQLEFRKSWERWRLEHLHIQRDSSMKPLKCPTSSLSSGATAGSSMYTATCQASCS

[2] = molecular target: T3, gastric inhibitory peptide receptor (GIPR) (Homo sapiens, UniProt P48546); experiment: cAMP pharmacological functional assay in presence of casein, hGIPR; assay type: cell-based; conditions: HEK293 cells expressing hGIPR, 0.1% Casein, geometric mean; read-out: hGIPR cAMP Rel EC50 nM (SEM, n)
T3 sequence (P48546 22-466): T2 sequence (P48546 22-466)

human GLP-1R = human GLP-1R (Homo sapiens, UniProt P43220); experiment: [125I]-GLP-1 binding (SPA), human GLP-1 receptor; design: expressed in transfected cells; crude membranes; conditions: read-out: hGLP1R Ki, (nM) (SEM, n)
human GLP-1R, sequence (P43220 24-463): as above
Outline: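 Ki values are geometric means with SEM over independent replicates on different days, derived from IC50s fitted by four-parameter nonlinear regression. The assay used crude cell membranes in HEPES buffer, pH 7.4, containing CaCl2, MgCl2, bacitracin and TWEEN-20.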

Compound	Ki (human Gcg receptor) [nM]	Ki (human GIP receptor) [nM]	EC50 [1] [nM]	EC50 [2] [nM]	Ki (human GLP-1R) [nM]
CC[C@H](C)[C@H](NC(=O)[C@H](CC(C)C)NC(=O)[C@H](Cc1ccc(O)cc1)NC(=O)[C@H](CCC(=O)O)NC(=O)[C@@H](NC(=O)[C@H](Cc1ccccc1)NC(=O)[C@H](C)NC(=O)C(C)(C)NC(=O)[C@H](CCC(N)=O)NC(=O)[C@H](C)NC(=O)[C@H](CCCCNC(=O)COCCOCCNC(=O)COCCOCCNC(=O)CC[C@H](NC(=O)CCCCCCCCCCCCCCCCCCC(=O)O)C(=O)O)NC(=O)[C@H](CCC(=O)O)NC(=O)[C@H](CC(=O)O)NC(=O)[C@H](CC(C)C)NC(=O)C(C)(C)NC(=O)[C@@H](NC(=O)[C@H](CO)NC(=O)[C@H](Cc1ccc(O)cc1)NC(=O)[C@H](CC(=O)O)NC(=O)[C@H](CO)NC(=O)[C@@H](NC(=O)[C@](C)(Cc1ccccc1F)NC(=O)[C@@H](NC(=O)CNC(=O)[C@H](CCC(=O)O)NC(=O)C(C)(C)NC(=O)[C@@H](N)Cc1ccc(O)cc1)[C@@H](C)O)[C@@H](C)O)[C@@H](C)CC)[C@@H](C)CC)C(=O)N[C@@H](CCC(=O)O)C(=O)NCC(=O)NCC(N)=O [Example 101] (H-Y[Aib]EGT[αMePhe(2-F)]TSDYSI[Aib]LDEK([AEEA-AEEA-γGlu-C20 diacid])AQ[Aib]AFIEYLIEGG-NH2)	117	0.0953	0.0579	0.0704	8.1
CC[C@H](C)[C@H](NC(=O)[C@H](CC(C)C)NC(=O)[C@H](Cc1ccc(O)cc1)NC(=O)[C@H](CCC(=O)O)NC(=O)[C@@H](NC(=O)[C@H](Cc1ccccc1)NC(=O)[C@H](CCC(=O)O)NC(=O)C(C)(C)NC(=O)[C@H](CCC(N)=O)NC(=O)[C@H](C)NC(=O)[C@H](CCCCNC(=O)COCCOCCNC(=O)COCCOCCNC(=O)CC[C@H](NC(=O)CCCCCCCCCCCCCCCCCCC(=O)O)C(=O)O)NC(=O)[C@H](CCC(=O)O)NC(=O)[C@H](CC(=O)O)NC(=O)[C@H](CC(C)C)NC(=O)[C@](C)(CC(C)C)NC(=O)[C@@H](NC(=O)[C@H](CO)NC(=O)[C@H](Cc1ccc(O)cc1)NC(=O)[C@H](CC(=O)O)NC(=O)[C@H](CO)NC(=O)[C@@H](NC(=O)[C@](C)(Cc1ccccc1F)NC(=O)[C@@H](NC(=O)CNC(=O)[C@H](CCC(=O)O)NC(=O)C(C)(C)NC(=O)[C@@H](N)Cc1ccc(O)cc1)[C@@H](C)O)[C@@H](C)O)[C@@H](C)CC)[C@@H](C)CC)C(=O)N[C@@H](CCC(=O)O)C(=O)NCC(=O)NCC(N)=O [Example 103] (H-Y[Aib]EGT[αMePhe(2-F)]TSDYSI[αMeL]LDEK([AEEA-AEEA-γGlu-C20 diacid])AQ[Aib]EFIEYLIEGG-NH2; N-terminus assumed)	40.3	0.0645	0.101	0.0693	6.68
CC[C@H](C)[C@H](NC(=O)[C@H](CC(C)C)NC(=O)[C@H](Cc1ccc(O)cc1)NC(=O)[C@H](CCC(=O)O)NC(=O)[C@@H](NC(=O)[C@H](Cc1ccccc1)NC(=O)[C@H](C)NC(=O)C(C)(C)NC(=O)[C@H](CCC(N)=O)NC(=O)[C@H](C)NC(=O)[C@H](CCCCNC(=O)COCCOCCNC(=O)COCCOCCNC(=O)CC[C@H](NC(=O)CCCCCCCCCCCCCCCCCCC(=O)O)C(=O)O)NC(=O)[C@H](CCCCN)NC(=O)[C@H](CC(=O)O)NC(=O)[C@H](CC(C)C)NC(=O)[C@H](CC(C)C)NC(=O)[C@@H](NC(=O)[C@H](CO)NC(=O)[C@H](Cc1ccc(O)cc1)NC(=O)[C@H](CC(=O)O)NC(=O)[C@H](CO)NC(=O)[C@@H](NC(=O)[C@H](Cc1ccccc1)NC(=O)[C@@H](NC(=O)CNC(=O)[C@H](CCC(=O)O)NC(=O)C(C)(C)C(=O)NCCc1cnc[nH]1)[C@@H](C)O)[C@@H](C)O)[C@@H](C)CC)[C@@H](C)CC)C(=O)N[C@@H](CCC(=O)O)C(=O)NCC(=O)NCC(=O)N1CCC[C@H]1C(=O)N[C@@H](CO)C(=O)N[C@@H](CO)C(=O)NCC(=O)N[C@@H](C)C(=O)N1CCC[C@H]1C(=O)N1CCC[C@H]1C(=O)N1CCC[C@H]1C(=O)N[C@@H](CO)C(N)=O [Example 105] ({Malonyl(2,2-Me2,histaminyl)}-EGTFTSDYSILLDKK([AEEA-AEEA-γGlu-C20 diacid])AQ[Aib]AFIEYLIEGGPSSGAPPPS-NH2)	20.4	0.119	0.0401	1.85	0.871
CC[C@H](C)[C@H](NC(=O)[C@H](CC(C)C)NC(=O)[C@H](Cc1ccc(O)cc1)NC(=O)[C@H](CCC(=O)O)NC(=O)[C@@H](NC(=O)[C@H](Cc1ccccc1)NC(=O)[C@H](C)NC(=O)C(C)(C)NC(=O)[C@H](CCC(N)=O)NC(=O)[C@H](C)NC(=O)[C@H](CCCCNC(=O)COCCOCCNC(=O)COCCOCCNC(=O)CC[C@H](NC(=O)CCCCCCCCCCCCCCCCCCC(=O)O)C(=O)O)NC(=O)[C@H](CCCCN)NC(=O)[C@H](CC(=O)O)NC(=O)[C@H](CC(C)C)NC(=O)[C@H](CC(C)C)NC(=O)[C@@H](NC(=O)[C@H](CO)NC(=O)[C@H](Cc1ccc(O)cc1)NC(=O)[C@H](CC(=O)O)NC(=O)[C@H](CO)NC(=O)[C@@H](NC(=O)[C@H](Cc1ccccc1)NC(=O)[C@@H](NC(=O)CNC(=O)[C@H](CCC(=O)O)NC(=O)C(C)(C)NC(=O)CCc1c[nH]cn1)[C@@H](C)O)[C@@H](C)O)[C@@H](C)CC)[C@@H](C)CC)C(=O)N[C@@H](CCC(=O)O)C(=O)NCC(=O)NCC(=O)N1CCC[C@H]1C(=O)N[C@@H](CO)C(=O)N[C@@H](CO)C(=O)NCC(=O)N[C@@H](C)C(=O)N1CCC[C@H]1C(=O)N1CCC[C@H]1C(=O)N1CCC[C@H]1C(=O)N[C@@H](CO)C(N)=O [Example 106] (Desaminohistidyl-[Aib]EGTFTSDYSILLDKK([AEEA-AEEA-γGlu-C20 diacid])AQ[Aib]AFIEYLIEGGPSSGAPPPS-NH2)	515	0.179	0.0413	6.54	1.2
CC[C@H](C)[C@H](NC(=O)[C@H](CC(C)C)NC(=O)[C@H](Cc1ccc(O)cc1)NC(=O)[C@H](CCC(=O)O)NC(=O)[C@@H](NC(=O)[C@H](Cc1ccccc1)NC(=O)[C@H](C)NC(=O)C(C)(C)NC(=O)[C@H](CCC(N)=O)NC(=O)[C@H](C)NC(=O)[C@H](CCCCNC(=O)COCCOCCNC(=O)COCCOCCNC(=O)CC[C@H](NC(=O)CCCCCCCCCCCCCCCCCCC(=O)O)C(=O)O)NC(=O)[C@H](CCCCN)NC(=O)[C@H](CC(=O)O)NC(=O)[C@H](CC(C)C)NC(=O)[C@H](CC(C)C)NC(=O)[C@@H](NC(=O)[C@H](CO)NC(=O)[C@H](Cc1ccc(O)cc1)NC(=O)[C@H](CC(=O)O)NC(=O)[C@H](CO)NC(=O)[C@@H](NC(=O)[C@H](Cc1ccccc1)NC(=O)[C@@H](NC(=O)CNC(=O)[C@H](CCC(=O)O)NC(=O)C(C)(C)NC(=O)CCc1ccc(O)cc1)[C@@H](C)O)[C@@H](C)O)[C@@H](C)CC)[C@@H](C)CC)C(=O)N[C@@H](CCC(=O)O)C(=O)NCC(=O)NCC(=O)N1CCC[C@H]1C(=O)N[C@@H](CO)C(=O)N[C@@H](CO)C(=O)NCC(=O)N[C@@H](C)C(=O)N1CCC[C@H]1C(=O)N1CCC[C@H]1C(=O)N1CCC[C@H]1C(=O)N[C@@H](CO)C(N)=O [Example 107] (Desaminotyrosyl-[Aib]EGTFTSDYSILLDKK([AEEA-AEEA-γGlu-C20 diacid])AQ[Aib]AFIEYLIEGGPSSGAPPPS-NH2)	303	0.0425	0.0539	0.241	0.867
CC[C@H](C)[C@H](NC(=O)[C@H](CC(C)C)NC(=O)[C@H](Cc1ccc(O)cc1)NC(=O)[C@H](CCC(=O)O)NC(=O)[C@@H](NC(=O)[C@H](Cc1ccccc1)NC(=O)[C@H](C)NC(=O)C(C)(C)NC(=O)[C@H](CCC(N)=O)NC(=O)[C@H](C)NC(=O)[C@H](CCCCNC(=O)CCCCCCCNC(=O)COCCOCCNC(=O)CC[C@H](NC(=O)CCCCCCCCCCCCCCCCCCC(=O)O)C(=O)O)NC(=O)[C@H](CCCCN)NC(=O)[C@H](CC(=O)O)NC(=O)[C@H](CC(C)C)NC(=O)[C@H](CC(C)C)NC(=O)[C@@H](NC(=O)[C@H](CO)NC(=O)[C@H](Cc1ccc(O)cc1)NC(=O)[C@H](CC(=O)O)NC(=O)[C@H](CO)NC(=O)[C@@H](NC(=O)[C@H](Cc1ccccc1)NC(=O)[C@@H](NC(=O)CNC(=O)[C@H](CCC(=O)O)NC(=O)C(C)(C)NC(=O)[C@@H](N)Cc1ccc(O)cc1)[C@@H](C)O)[C@@H](C)O)[C@@H](C)CC)[C@@H](C)CC)C(=O)N[C@@H](CCC(=O)O)C(=O)NCC(=O)NCC(=O)N1CCC[C@H]1C(=O)N[C@@H](CO)C(=O)N[C@@H](CO)C(=O)NCC(=O)N[C@@H](C)C(=O)N1CCC[C@H]1C(=O)N1CCC[C@H]1C(=O)N1CCC[C@H]1C(=O)N[C@@H](CO)C(N)=O [Example 109]	43.1	0.0279	0.35	0.109	1.34
